# Reference: the Kinase Knowledgebase extract (Sharma et al. 2016)
# Columns and labels:
# EGFR (human) [1] = target: EGFR (human) (UniProt P00533); conditions: kb
# EGFR (human) [2] = target: EGFR (human) (UniProt P00533)
# EGFR (human), sequence (P00533 whole entry, looked up): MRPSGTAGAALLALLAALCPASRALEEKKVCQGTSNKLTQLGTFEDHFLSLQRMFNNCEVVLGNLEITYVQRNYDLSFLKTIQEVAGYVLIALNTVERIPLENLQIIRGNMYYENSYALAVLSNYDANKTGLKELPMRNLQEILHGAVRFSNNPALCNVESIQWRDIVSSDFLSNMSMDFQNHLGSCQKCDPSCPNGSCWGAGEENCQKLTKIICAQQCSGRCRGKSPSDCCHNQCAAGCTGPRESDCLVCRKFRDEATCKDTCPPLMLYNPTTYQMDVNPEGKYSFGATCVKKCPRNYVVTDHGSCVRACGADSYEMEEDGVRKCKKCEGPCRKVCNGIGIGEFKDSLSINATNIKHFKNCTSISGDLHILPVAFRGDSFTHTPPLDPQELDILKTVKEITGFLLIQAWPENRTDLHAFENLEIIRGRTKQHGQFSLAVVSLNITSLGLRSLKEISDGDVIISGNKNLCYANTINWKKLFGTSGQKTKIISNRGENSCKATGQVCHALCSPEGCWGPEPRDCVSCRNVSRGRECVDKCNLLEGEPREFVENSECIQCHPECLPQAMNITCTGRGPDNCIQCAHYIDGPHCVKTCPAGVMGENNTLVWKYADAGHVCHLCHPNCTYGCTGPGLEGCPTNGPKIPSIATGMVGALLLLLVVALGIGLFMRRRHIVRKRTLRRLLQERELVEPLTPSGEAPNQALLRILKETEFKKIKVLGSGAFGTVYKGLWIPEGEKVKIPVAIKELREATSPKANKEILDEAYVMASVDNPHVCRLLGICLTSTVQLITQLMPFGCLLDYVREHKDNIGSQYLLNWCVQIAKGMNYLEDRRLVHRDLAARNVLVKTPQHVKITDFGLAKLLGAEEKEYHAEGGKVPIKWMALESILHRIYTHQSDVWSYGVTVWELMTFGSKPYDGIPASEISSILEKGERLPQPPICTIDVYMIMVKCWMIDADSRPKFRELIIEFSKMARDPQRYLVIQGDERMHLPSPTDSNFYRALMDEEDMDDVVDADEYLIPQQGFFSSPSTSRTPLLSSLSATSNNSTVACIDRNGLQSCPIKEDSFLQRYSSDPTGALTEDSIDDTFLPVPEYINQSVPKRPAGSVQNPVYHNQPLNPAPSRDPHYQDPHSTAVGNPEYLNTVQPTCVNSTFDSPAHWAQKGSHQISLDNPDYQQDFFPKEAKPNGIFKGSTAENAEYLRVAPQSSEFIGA
Structure (SMILES),IC50 (EGFR (human) [1]),IC50 (EGFR (human) [2])
COc1cc2ncnc(Nc3cccc(Cl)c3F)c2cc1OC1CCN(C(=O)c2ccno2)CC1,17 nM,
COc1cc2c(Nc3cccc(Cl)c3F)ncnc2cc1OC1CCN(C(=O)Cc2cc(C)no2)CC1,47 nM,
COc1cc2ncnc(Nc3cccc(Cl)c3F)c2cc1OC1CCN(C(=O)c2ccccn2)CC1,16 nM,
COc1cc2ncnc(Nc3cccc(Cl)c3F)c2cc1OC1CCN(C(=O)Nc2c(C)noc2C)CC1,17 nM,
COc1cc2c(Nc3cccc(Cl)c3F)ncnc2cc1OC1CCN(C(=O)c2cccnc2)CC1,87 nM,
COc1cc2ncnc(Nc3cccc(Cl)c3F)c2cc1O[C@@H]1CCCN(C(=O)Cc2cccs2)C1,30 nM,

# Stronger by IC50 (EGFR (human) [1]), values ahead:
IC50 (EGFR (human) [1]),IC50 (EGFR (human) [2]),Structure (SMILES)
0.144 nM,0.008 nM,COc1cc2ncnc(Nc3cccc(Cl)c3F)c2cc1O[C@H]1C[C@H](C(=O)NCCNC(C)=O)N(C)C1
0.139 nM,0.01 nM,COc1cc2ncnc(Nc3cccc(Cl)c3F)c2cc1O[C@H]1C[C@H](C(=O)N[C@H]2COC[C@@H]2O)N(C)C1
0.063 nM,0.012 nM,COc1cc2ncnc(Nc3cccc(Cl)c3F)c2cc1O[C@@H]1C[C@@H](C(=O)NCCC#N)N(C)C1
